Values joined by “and” are separate entries in the source; they are usually repeats but may differ in a detail not shown here. Equal entries are not always repeated. Structures can show the parent of a compound that is named as a salt.
How the values were obtained:
Corn [1] = assay: Pre-emergence herbicide test, corn; format: in vivo, Zea mays
Experimental: (§1) In this evaluation, each compound to be tested was dissolved in a 1:1 mixture of acetone and ethanol containing a small amount of Toximul R and Toximul S (each a sulfonate/nonionic blend produced by Stepan Chemical Company, Northfield, Illinois). The solution was then diluted with deionized water to a composition of the following concentrations, by weight: Plant species used as indicators of herbicidal activity were planted in galvanized pans (flats) 31.5 cm. long, 21.5 cm. wide, and 8.0 cm. deep. The bottoms of the flats had holes to facilitate drainage. The soil used was a 1:1 ratio by volume of masonry sand and shredded top soil. Seeds of seven indicator species were planted in rows perpendicular to the long axis of the flat, one species per row, and covered with 0.5 to 1.0 cm. of sterilized soil. Indicator species and approximate number of seeds planted were as follows: Flats that were to receive preemergence treatments were planted one day prior to, or on the same day treatments were applied. Flats that were to receive postemergence treatments were planted 9 days prior to treatment and placed in a growth chamber until the day of treatment. In the growth chamber, flats received 12 to 18 hours of light per day and were subject to temperatures of 75° to 85° F. The formulated test compound was applied uniformly to the indicator species with a modified DeVilbiss atomizer using air pressure of 3 to 5 psi. Each flat received 12.5 ml. of spray solution which was equal to 200 gallons/acre total spray volume. Plants were maintained in a greenhouse after treatment. Herbicidal effects of chemicals were evaluated by two injury rating systems 18 days after preemergence applications and 14 days after postemergence applications. The degree of plant injury was based on a 1 to 5 scale and a single numerical rating was assigned to each test species as follows: […]

Zinnia [2] = assay: Post-emergence herbicide test, zinnia; format: in vivo, Zinnia elegans
Experimental: as §1

Corn [3] = assay: Post-emergence herbicide test, corn; format: in vivo, Zea mays
Experimental: as §1

Mexican bean beetle = Mexican bean beetle test; format: in vivo, Epilachna varivestis; conditions: 4 days; as to Mexican Bean Beetle Stom. (mortality rating): ranges in brackets are in %
Experimental: (§2) In this evaluation, each compound to be tested was dissolved in a 1:1 mixture of acetone and ethanol containing a small amount of Toximul R and Toximul S (each a sulfonate/nonionic blend produced by Stephan Chemical Company, Northfield, Ill.). The solution was then diluted with distilled water to a concentration of 1000 ppm of test compound.
This test was conducted with second instar larvae of Epilachna varivestis Mulsant, order Coleoptera, family Coccinellidae. Larvae for the test, of uniform size and not molting, were picked by hand from flats of Bountiful snap beans on which they were grown and were placed in 100×20 mm plastic petri dishes for testing. Five larvae were used per replicate.
Two 4- to 6-day-old Bountiful green bean primry leaves (approximately 6 sq. in. of leaf surface) were used for each replicate. Two replicates were run per compound.
[…] […] The nozzle of the atomizer was held 12 to 18 inches from the leaves and was supplied with 5-6 psi air pressure. The atomizer was rinsed with acetone after each compound was sprayed. The plants were allowed to dry. The leaves were then cut from the plants and placed in the petri dishes containing the bean beetle larvae. A small wad of wet cellucotton was added to each dish to help prevent the leaves from wilting.
After 4 days, a mortality count was made and the amount of feeding was noted. Moribund larvae were counted as dead.

Zinnia [4] = assay: Pre-emergence herbicide test, zinnia; format: in vivo, Zinnia elegans
Experimental: as §1

Foxtail = assay: Pre-emergence herbicide test, foxtail; format: in vivo, Setaria italica
Experimental: as §1

Large Crabgrass = assay: Pre-emergence herbicide test, large crabgrass; format: in vivo, Digitaria sanguinalis
Experimental: as §1

Morning-glory [5] = assay: Pre-emergence herbicide test, morningglory; format: in vivo, Ipomoea purpurea
Experimental: as §1

two-spotted spider mite = assay: Two-spotted spider mite test; format: in vivo, Tetranychus urticae; conditions: 4 days; also: ranges in brackets are in %
Experimental: as §2, with “compound. Lesser concentration formulations were made by diluting a portion of the 1000 ppm solution with distilled water containing 225 mg. of Toximul R and 125 mg. of Toximul S per liter.” for “compound.”
This test was conducted with nymphs and adults of Tetranychus urticae (Koch), Order Acarina, Family Tetranychidae.
This test was run using blue hubbard squash plants which were grown in vermiculite (insulation grade No. 1) in 5 oz. plastic Dixie cups. One cotyledon is removed from each plant to remain in the cups. On retests two plants were left in each cup and on regular initial tests one plant was left in each cup. Each cotyledon is infested by placing a mite infested trifoliate bean leaf on if. Infected plants in cups were held for one day, then sprayed to wetting with formulations containing 1000 ppm of the test compound, using the DeVilbiss atomizer with 5-6 psi air pressure. Retests were run at 100 ppm. Tests were read four days after treatment. Two unsprayed but infested plants were held as a control. Two infested plants were sprayed with a formulation containing 750 ppm of galecron [N'-(4-chloro-o-tolyl)-N,N-dimethylformamidine monohydrochloride] as a reference standard.

Velvetleaf [6] = assay: Pre-emergence herbicide test, velvetleaf; format: in vivo, Abutilon theophrasti
Experimental: as §1

Morning-glory [7] = assay: Post-emergence herbicide test, morningglory; format: in vivo, Ipomoea purpurea
Experimental: as §1

Velvetleaf [8] = assay: Post-emergence herbicide test, velvetleaf; format: in vivo, Abutilon theophrasti
Experimental: as §1

Pigweed = assay: Pre-emergence herbicide test, pigweed; format: in vivo, Amaranthus retroflexus
Experimental: as §1

For O=[N+]([O-])c1cc(C(F)(F)F)cc2c1NC(O)(C(F)(F)C(F)F)N2 (stereo not shown) [Example 2, 2-Hydroxy-2-(1,1,2,2-Tetrafluoroethyl)-4-Nitro-6-(Trifluoromethyl)Benzimidazoline, Sodium Salt, and Hydrate], the plant injury rating (Corn [1]; 1/2 lb/A) was 1 (no injury), the plant injury rating (Corn [1]; 1/4 lb/A) was 1 (no injury) and the plant injury rating (Corn [1]; 1 lb/A) was 1 (no injury). The plant injury rating (Corn [1]; 2 lb/A) was 1 (no injury), the plant injury rating (Corn [1]; 4 lb/A) was 1 (no injury) and the plant injury rating (Corn [1]; 8 lb/A) was 3SB. For the same compound, the plant injury rating (Zinnia [2]; 1/2 lb/A) was 3BS, the plant injury rating (Zinnia [2]; 1/4 lb/A) was 3BS and the plant injury rating (Zinnia [2]; 2 lb/A) was 5D. The plant injury rating (Zinnia [2]; 4 lb/A) was 5D, the plant injury rating (Zinnia [2]; 8 lb/A) was 5D and the plant injury rating (Corn [3]; 1/2 lb/A) was 1 (no injury). For the same compound, the plant injury rating (Corn [3]; 1/4 lb/A) was 1 (no injury), the plant injury rating (Corn [3]; 2 lb/A) was 3BS and the plant injury rating (Corn [3]; 4 lb/A) was 3BS. The plant injury rating (Corn [3]; 8 lb/A) was 5D, the “Mexican Bean Beetle Feed. (feeding rating)” value (Mexican bean beetle; 100 ppm) was 0 (none of the leaves eaten) and the “Mexican Bean Beetle Stom. (mortality rating)” value (Mexican bean beetle; 100 ppm) was 3 (100). For the same compound, the “Mexican Bean Beetle Stom. (mortality rating)” value (Mexican bean beetle; 1000 ppm) was 3 (100), the plant injury rating (Zinnia [4]; 1/2 lb/A) was 1 (no injury) and the plant injury rating (Zinnia [4]; 1/4 lb/A) was 1 (no injury). The plant injury rating (Zinnia [4]; 1 lb/A) was 1 (no injury), the plant injury rating (Zinnia [4]; 2 lb/A) was 2S and the plant injury rating (Zinnia [4]; 4 lb/A) was 4BS. The plant injury rating (Zinnia [4]; 8 lb/A) was 5D, the plant injury rating (Foxtail; 1/2 lb/A) was 1 (no injury) and the plant injury rating (Foxtail; 1/4 lb/A) was 1 (no injury). For the same compound, the plant injury rating (Foxtail; 1 lb/A) was 1 (no injury), the plant injury rating (Foxtail; 2 lb/A) was 2S and the plant injury rating (Foxtail; 4 lb/A) was 2S. The plant injury rating (Foxtail; 8 lb/A) was 5N, the plant injury rating (Large Crabgrass; 1/2 lb/A) was 1 (no injury) and the plant injury rating (Large Crabgrass; 1/4 lb/A) was 1 (no injury). For the same compound, the plant injury rating (Large Crabgrass; 1 lb/A, Hydrate) was 3S and 2S, the plant injury rating (Large Crabgrass; 2 lb/A) was 4RS and the plant injury rating (Large Crabgrass; 4 lb/A) was 4RS. For the same compound, the plant injury rating (Large Crabgrass; 8 lb/A) was 5N, the plant injury rating (Morning-glory [5]; 1/2 lb/A) was 1 (no injury) and the plant injury rating (Morning-glory [5]; 1/4 lb/A) was 1 (no injury). For the same compound, the plant injury rating (Morning-glory [5]; 1 lb/A) was 1 (no injury), the plant injury rating (Morning-glory [5]; 2 lb/A) was 2B and the plant injury rating (Morning-glory [5]; 4 lb/A) was 4BS. For the same compound, the plant injury rating (Morning-glory [5]; 8 lb/A) was 5N, the “2-Sp. Spider Mite Cont. (mortality rating)” value (two-spotted spider mite; 100 ppm) was 3 (100) and the “2-Sp. Spider Mite Cont. (mortality rating)” value (two-spotted spider mite; 1000 ppm) was 3 (100). For the same compound, the plant injury rating (Velvetleaf [6]; 1/2 lb/A) was 1 (no injury), the plant injury rating (Velvetleaf [6]; 1/4 lb/A) was 1 (no injury) and the plant injury rating (Velvetleaf [6]; 1 lb/A) was 1 (no injury). It also gave a plant injury rating (Velvetleaf [6]; 2 lb/A) of 2S, a plant injury rating (Velvetleaf [6]; 4 lb/A) of 4BS and a plant injury rating (Velvetleaf [6]; 8 lb/A) of 5D. The plant injury rating (Morning-glory [7]; 1/2 lb/A) was 2B, the plant injury rating (Morning-glory [7]; 1/4 lb/A) was 2B and the plant injury rating (Morning-glory [7]; 2 lb/A) was 3BS. The plant injury rating (Morning-glory [7]; 4 lb/A) was 4BS, the plant injury rating (Morning-glory [7]; 8 lb/A) was 5D and the plant injury rating (Velvetleaf [8]; 1/2 lb/A) was 2SB. For the same compound, the plant injury rating (Velvetleaf [8]; 1/4 lb/A) was 2B, the plant injury rating (Velvetleaf [8]; 1 lb/A, Hydrate) was 3BS and 4BS and the plant injury rating (Velvetleaf [8]; 2 lb/A) was 5D. For the same compound, the plant injury rating (Velvetleaf [8]; 4 lb/A) was 5D, the plant injury rating (Velvetleaf [8]; 8 lb/A) was 5D and the plant injury rating (Pigweed; 1/2 lb/A) was 2S. For the same compound, the plant injury rating (Pigweed; 1/4 lb/A) was 1 (no injury), the plant injury rating (Pigweed; 2 lb/A) was 4SR and the plant injury rating (Pigweed; 4 lb/A) was 4RS. For the same compound, the plant injury rating (Pigweed; 8 lb/A) was 5D.

Reference: US4265901A, “2-Oxybenzimidazoline compounds” (priority 1979, dated 1981)
